One may read the IC50 as the point on the concentration scale where inhibition reaches its midpoint.

For 1 compound, IC50 results are on record in EP3322687B1, “2-BENZYL-INDANONE COMPOUNDS AS ANTICANCER AGENT AND A PROCESS FOR PREPARATION THEREOF” (Council of Scientific and Industrial Research, priority 2015, dated 2017).

What all share (assay): Sulforhodamine B cytotoxicity assay
Type in all cases: cell-based
For orientation: Sulforhodamine B stains cellular protein and so reports cell mass.

For one assay, the system named is A549 (Lung). The conditions noted are these: Homo sapiens, A549, 48 h, read-out: Human cancer cell lines IC50 A549 (Lung). The procedure: (§1) The benzyl compounds were evaluated by Sulforhodamine B Assay as per reported method [Skehan etal., J. Natl. Cancer Inst.1990, 82, 1107]. The human cancer cell lines procured from National Cancer Institute, Frederick, U. S. A. were used in present study. Cells were grown in tissue culture flasks in complete growth medium (RPMI-1640 medium with 2 mM glutamine, pH 7.4 supplemented with 10% fetal bovine serum, 100 µg/ml streptomycin and 100 units/ml penicillin) in a carbon dioxide incubator (37°C, 5% CO2, 90% RH). The cells at subconfluent stage were harvested from the flask by treatment with trypsin (0.05% in PBS (pH 7.4) containing 0.02% EDTA). Cells with viability of more than 98%, as determined by trypan blue exclusion, were used for determination of cytotoxicity. The cell suspension required concentration of cells was prepared in complete growth medium. Stock solution of 2x10^-2 M of compounds were prepared in DMSO and further dilution was carried out complete growth medium containing 50µg/ml of gentamycin to obtained working test solution of required concentration. In vitro cytotoxicity against various human cancer cell lines was determined using 96-well cell culture plates. The 100µl of cell suspension was added to each well of the 96-well cell culture plates. The cells were allowed to grow in CO2 incubator (37°C, 5% CO2, 90% RH) for 24 hours. The test materials in complete growth medium (100 µl) were added after 24 hours incubation to the wells containing cell suspension. The plates were further incubated for 48 hours (37°C in an atmosphere of 5% CO2 and 90% relative humidity) in a carbon dioxide incubator after addition of test material and then the cell growth was stopped by gently layering trichloroacetic acid (50% TCA, 50 µl) on top of the medium in all the wells. The plates were incubated at 4°C for one hour to fix the cells attached to the bottom of the wells. The liquid of all the wells was gently pipetted out and discarded. The plates were washed five times with distilled water to remove TCA, growth medium low molecular weight metabolites, serum proteins etc. and air - dried. Cell growth was measured by staining with sulforhodamine B dye. The adsorbed dye was dissolved in Tris-HCl Buffer (100 µl/well, 0.01M, pH 10.4) and plates were gently stirred for 10 minutes on a mechanical stirrer. The optical density (OD) was recorded on ELISA reader at 540nm. Paclitaxel (Taxol), and 5-Fluorouracil were used as positive controls (Standard drugs).

A further assay has as its system HCT-116 (Colon). The settings on record: Homo sapiens, HCT-116, 48 h, read-out: Human cancer cell lines IC50 HCT-116 (Colon). The procedure: as §1
For another assay, the system named is MCF-7 (Breast cancer). The settings on record: Homo sapiens, MCF7, 48 h, read-out: Human cancer cell lines IC50 MCF-7 (Breast cancer). The method, then:
as §1

As to `COc1cc(C2c3c(cc(OC)c(OC)c3OC)C(=O)C2Cc2ccc3c(c2)OCO3)cc(OC)c1OC` (stereo not drawn) [Compound 2, 2-(3",4"-methylenedioxybenzyl)-3-(3',4',5'-trimethoxyphenyl)-4,5,6-trimethoxy-indan-1-one], the IC50 in the assay on A549 (Lung) came to 2000 nM; in the assay on HCT-116 (Colon), 3000 nM; in the assay with MCF-7 (Breast cancer), 3000 nM.
